Test results from the NIST ThermoML archive (doi:10.1016/j.tca.2009.08.017).
Numbers after ± are expanded uncertainties.

Assays:
[1] = Crystal; DTA
[2] = Molar enthalpy of transition or fusion; settings: Crystal; DSC

Row | Normal melting temperature [1] | Molar enthalpy of transition or fusion [2] | SMILES
1 | 210.20 ± 3.2 °C | 26.9 ± 1.53 kcal/mol | NC(=O)C[C@H](N)C(=O)O [L-asparagine]
2 | 182.20 ± 3.4 °C | 6.93 ± 0.884 kcal/mol | NC(=O)CC[C@H](N)C(=O)O [L-glutamine]
